{"source": "patent US20200368249A1", "about": "(priority 2017, published 2020)", "key": {"Mtb": {"tested_on": "Mtb", "details": "cited from earlier work"}, "Mab": {"tested_on": "Mab", "details": "even at 32 and 64-fold MIC; cited from earlier work"}, "Mab 390S-lux": {"tested_on": "Mab 390S-lux", "assay_type": "cell-based, M. abscessus 390S"}, "Mtb CDC1551": {"tested_on": "Mtb CDC1551", "assay": "time-kill kinetic assay, Mtb", "assay_type": "cell-based, M. tuberculosis", "details": "for mode of action against Mtb: actively replicating Mtb", "experimental": "To examine whether bacterial killing is concentration and/or time-dependent, a time-kill kinetic study was carried out with 8, 10, 11, 14, and 15. For Mtb, CDC1551 cultures diluted to an OD of 0.01 in 7H9 were added to a solid-white 384-well plate containing compounds at final concentrations of 0, 1×, 4× and 8× MIC in a total volume of 30 μl. DMSO control was also included. The plate was incubated for 6 days for Mtb. At every time point-0, 24, 48 and 72 h post-inoculation, an aliquot was taken, serially diluted and 50 μl plated onto 7H10 quad-plates supplemented with OADC. Colonies were counted after 3-4 weeks of incubation at 37° C. and CFU/ml was calculated. […] The plate was incubated for 3 days and colonies were counted after 5 days of incubation following plating. A 1-2 log10 decrease in CFU/ml is considered bactericidal. Luminescence was also read at every time point before taking an aliquot for serial dilution."}, "[1]": {"tested_on": "J774A.1 macrophage cell line", "assay": "cytotoxicity assay (resazurin)", "assay_type": "cell-based", "details": "J774 macrophages, 24 h", "experimental": "Cytotoxicity was assessed on J774A.1 (ATCC® TIB67™) macrophage cell line. Macrophages were cultured in Dulbecco's Modified Eagle Medium (DMEM, GIBCO) supplemented with 10% heat inactivated fetal calf serum (Atlanta Biologicals), 1 mM sodium pyruvate (CellGro), 2 mM L-glutamine (CORNING) and 1% PenStrep (100 U/mL Penicillin, […] Streptomycin, GIBCO). Macrophages were seeded in a 384-well black transparent bottom plate (Corning) at 2.5×10^4 cells/well. After macrophages were allowed to adhere for 4-6 h, a two-fold dilution series of the compounds (200-0.006 μM) and controls (2% Triton X and 0.5% DMSO) were added to the wells. The plate was incubated for 24 h and then 1/10th volume of resazurin dye was added. Fluorescence was measured following 4 h incubation with the dye at an excitation of 560 nm and emission at 590 nm with cell viability indicated by conversion of resazurin to fluorescent product resofurin. Viability is determined as percent growth calculated relative to the DMSO control."}, "Mtb-lux": {"tested_on": "Mtb-lux", "assay_type": "cell-based, M. tuberculosis CDC1551"}, "M. tuberculosis gyrase": {"biological_target": "M. tuberculosis gyrase (Mycobacterium tuberculosis, UniProt P9WG45+P9WG47)", "sequence (P9WG45 whole entry, looked up)": "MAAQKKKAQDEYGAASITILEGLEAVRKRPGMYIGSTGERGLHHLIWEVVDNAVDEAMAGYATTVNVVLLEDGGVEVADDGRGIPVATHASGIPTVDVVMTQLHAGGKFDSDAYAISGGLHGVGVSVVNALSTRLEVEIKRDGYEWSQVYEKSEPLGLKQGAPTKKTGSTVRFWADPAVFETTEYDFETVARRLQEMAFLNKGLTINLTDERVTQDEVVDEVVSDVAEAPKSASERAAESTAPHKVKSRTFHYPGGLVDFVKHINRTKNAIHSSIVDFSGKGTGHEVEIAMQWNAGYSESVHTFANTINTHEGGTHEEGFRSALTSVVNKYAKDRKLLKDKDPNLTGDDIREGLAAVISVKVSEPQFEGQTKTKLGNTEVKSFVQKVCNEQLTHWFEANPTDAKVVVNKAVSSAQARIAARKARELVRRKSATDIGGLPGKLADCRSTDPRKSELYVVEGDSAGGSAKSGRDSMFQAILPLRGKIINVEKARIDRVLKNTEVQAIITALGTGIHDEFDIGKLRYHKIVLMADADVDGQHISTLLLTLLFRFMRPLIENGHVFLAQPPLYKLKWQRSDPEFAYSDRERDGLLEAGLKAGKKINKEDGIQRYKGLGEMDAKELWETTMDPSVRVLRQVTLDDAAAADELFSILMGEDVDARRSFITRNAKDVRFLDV", "sequence (P9WG47 whole entry, looked up)": "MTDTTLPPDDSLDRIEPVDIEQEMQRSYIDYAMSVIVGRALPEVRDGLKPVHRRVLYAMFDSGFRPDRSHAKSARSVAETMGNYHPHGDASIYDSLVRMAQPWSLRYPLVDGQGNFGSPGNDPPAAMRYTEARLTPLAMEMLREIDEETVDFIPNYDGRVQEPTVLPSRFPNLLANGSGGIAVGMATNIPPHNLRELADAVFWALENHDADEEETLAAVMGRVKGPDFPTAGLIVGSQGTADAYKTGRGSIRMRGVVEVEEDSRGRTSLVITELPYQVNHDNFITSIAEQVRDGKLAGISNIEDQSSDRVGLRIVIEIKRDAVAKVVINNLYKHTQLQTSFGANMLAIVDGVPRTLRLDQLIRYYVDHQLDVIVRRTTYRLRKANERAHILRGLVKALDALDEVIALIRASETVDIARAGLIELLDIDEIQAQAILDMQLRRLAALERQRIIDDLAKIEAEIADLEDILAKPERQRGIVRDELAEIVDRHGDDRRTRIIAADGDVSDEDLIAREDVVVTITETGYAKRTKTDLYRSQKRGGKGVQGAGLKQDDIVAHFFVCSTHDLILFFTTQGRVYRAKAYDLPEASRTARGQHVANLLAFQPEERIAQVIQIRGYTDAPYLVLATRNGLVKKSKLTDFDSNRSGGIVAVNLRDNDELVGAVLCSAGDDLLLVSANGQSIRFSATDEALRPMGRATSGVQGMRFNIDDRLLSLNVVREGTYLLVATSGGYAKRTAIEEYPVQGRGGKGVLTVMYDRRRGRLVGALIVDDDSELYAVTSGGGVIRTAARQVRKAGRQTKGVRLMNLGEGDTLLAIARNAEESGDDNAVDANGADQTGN", "description": "(§1) In FIG. 8A-FIG. 8D, the IC50 was determined as the drug concentration which inhibited 50% of the supercoiling activity."}, "tolerability of mice": {"assay": "tolerability of mice", "assay_type": "in vivo", "details": "400 mg/kg, preliminary work"}, "E. coli gyrase": {"biological_target": "E. coli gyrase (Escherichia coli, UniProt P0AES4+P0AES6)", "sequence (P0AES4 whole entry, one chain of several)": "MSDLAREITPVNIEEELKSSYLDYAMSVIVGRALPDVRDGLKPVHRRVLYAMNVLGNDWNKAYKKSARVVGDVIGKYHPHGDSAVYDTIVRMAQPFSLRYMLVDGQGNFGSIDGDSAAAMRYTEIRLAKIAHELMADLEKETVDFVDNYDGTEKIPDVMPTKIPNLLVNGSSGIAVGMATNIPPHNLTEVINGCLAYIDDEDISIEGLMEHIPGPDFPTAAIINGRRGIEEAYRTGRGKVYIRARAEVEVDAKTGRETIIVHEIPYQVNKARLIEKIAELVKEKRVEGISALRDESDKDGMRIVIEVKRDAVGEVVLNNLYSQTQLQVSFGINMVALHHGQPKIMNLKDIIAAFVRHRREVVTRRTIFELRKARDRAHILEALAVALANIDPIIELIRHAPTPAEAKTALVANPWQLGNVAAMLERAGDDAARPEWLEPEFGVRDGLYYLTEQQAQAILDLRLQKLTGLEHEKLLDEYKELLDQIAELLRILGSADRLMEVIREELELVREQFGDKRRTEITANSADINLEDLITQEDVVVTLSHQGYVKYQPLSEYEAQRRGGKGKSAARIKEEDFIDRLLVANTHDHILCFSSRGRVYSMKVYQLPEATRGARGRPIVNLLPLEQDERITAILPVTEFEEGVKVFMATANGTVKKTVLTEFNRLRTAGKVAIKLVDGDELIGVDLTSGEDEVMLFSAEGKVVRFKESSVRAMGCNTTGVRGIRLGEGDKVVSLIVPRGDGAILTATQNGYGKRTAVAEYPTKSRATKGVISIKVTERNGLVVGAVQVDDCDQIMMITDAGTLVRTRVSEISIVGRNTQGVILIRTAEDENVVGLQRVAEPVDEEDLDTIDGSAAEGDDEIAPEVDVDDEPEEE", "description": "as §1"}, "[2]": {"assay": "reductive demetallation by glutathione", "assay_type": "physicochemical"}, "EcTopo1": {"biological_target": "EcTopo1 (Escherichia coli, UniProt P06612)", "sequence (P06612 whole entry)": "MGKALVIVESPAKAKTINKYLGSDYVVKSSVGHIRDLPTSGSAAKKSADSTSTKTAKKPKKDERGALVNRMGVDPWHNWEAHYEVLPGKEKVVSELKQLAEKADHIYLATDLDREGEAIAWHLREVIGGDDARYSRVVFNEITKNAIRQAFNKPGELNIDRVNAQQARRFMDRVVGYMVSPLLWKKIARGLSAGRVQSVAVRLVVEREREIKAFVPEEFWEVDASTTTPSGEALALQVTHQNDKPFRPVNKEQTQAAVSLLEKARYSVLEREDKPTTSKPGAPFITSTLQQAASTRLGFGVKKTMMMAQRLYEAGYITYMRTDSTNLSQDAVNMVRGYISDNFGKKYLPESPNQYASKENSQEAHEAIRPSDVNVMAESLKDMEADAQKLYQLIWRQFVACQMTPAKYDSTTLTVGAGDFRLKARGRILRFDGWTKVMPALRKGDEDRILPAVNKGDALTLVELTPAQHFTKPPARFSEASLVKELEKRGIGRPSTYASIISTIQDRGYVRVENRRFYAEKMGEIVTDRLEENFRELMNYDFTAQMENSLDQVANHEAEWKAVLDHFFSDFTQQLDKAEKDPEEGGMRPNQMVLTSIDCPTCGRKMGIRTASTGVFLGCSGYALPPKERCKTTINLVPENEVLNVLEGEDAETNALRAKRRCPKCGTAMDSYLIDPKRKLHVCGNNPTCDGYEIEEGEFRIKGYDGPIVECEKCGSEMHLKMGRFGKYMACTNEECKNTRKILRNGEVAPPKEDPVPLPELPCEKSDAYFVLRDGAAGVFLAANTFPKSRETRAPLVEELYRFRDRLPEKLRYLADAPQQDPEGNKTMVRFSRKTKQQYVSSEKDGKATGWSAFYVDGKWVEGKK", "excerpt": "(§2) In FIGS. 7A and 7B, R indicates relaxed circular DNA; PR indicates partially relaxed DNA; and SC indicates supercoiled DNA."}, "MtbTopo1": {"biological_target": "MtbTopo1 (Mycobacterium tuberculosis, UniProt P9WG49)", "sequence (P9WG49 whole entry, looked up)": "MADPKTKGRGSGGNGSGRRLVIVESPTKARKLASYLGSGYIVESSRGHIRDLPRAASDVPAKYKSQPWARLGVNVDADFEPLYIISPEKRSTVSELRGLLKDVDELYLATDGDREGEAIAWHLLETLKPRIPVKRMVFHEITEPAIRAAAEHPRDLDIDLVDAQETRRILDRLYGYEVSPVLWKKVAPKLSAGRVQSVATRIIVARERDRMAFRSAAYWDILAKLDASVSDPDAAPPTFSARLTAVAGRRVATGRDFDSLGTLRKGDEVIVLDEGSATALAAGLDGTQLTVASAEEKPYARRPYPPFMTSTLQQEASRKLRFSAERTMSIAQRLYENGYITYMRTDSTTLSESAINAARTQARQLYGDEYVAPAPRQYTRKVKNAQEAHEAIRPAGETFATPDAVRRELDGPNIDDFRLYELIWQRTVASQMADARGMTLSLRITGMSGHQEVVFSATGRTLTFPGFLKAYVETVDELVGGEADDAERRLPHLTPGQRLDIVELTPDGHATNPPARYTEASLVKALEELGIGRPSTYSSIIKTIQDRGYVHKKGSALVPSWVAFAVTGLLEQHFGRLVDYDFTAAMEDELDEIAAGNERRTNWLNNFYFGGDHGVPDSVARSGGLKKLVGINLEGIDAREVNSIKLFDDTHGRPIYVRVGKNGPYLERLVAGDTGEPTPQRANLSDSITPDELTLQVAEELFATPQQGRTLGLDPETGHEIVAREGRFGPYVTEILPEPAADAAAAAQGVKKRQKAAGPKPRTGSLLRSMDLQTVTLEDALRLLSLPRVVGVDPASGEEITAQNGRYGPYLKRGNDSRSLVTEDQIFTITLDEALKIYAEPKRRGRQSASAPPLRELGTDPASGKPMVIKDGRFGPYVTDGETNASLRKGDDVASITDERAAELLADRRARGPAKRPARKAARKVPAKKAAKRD", "assay": "topoisomerase 1A relaxation assay, MtbTopo1", "assay_type": "biochemical, M. tuberculosis", "excerpt": "as §2"}}, "note": "Values joined by “and” are separate entries in the source; they are usually repeats but may differ in a detail not shown here. Equal entries are not always repeated.", "data": [{"smiles": "CC(=O)OC[C@H]1O[C@@H]([S-])[C@H](OC(C)=O)[C@@H](OC(C)=O)[C@@H]1OC(C)=O.CCP(CC)CC.[Au+]", "note": "[auranofin]", "values": [{"measurement": "activity against Mtb", "setting": "Mtb", "value": "bactericidal"}]}, {"smiles": "NCC[C@H](O)C(=O)N[C@@H]1C[C@H](N)[C@@H](O[C@H]2O[C@H](CN)[C@@H](O)[C@H](O)[C@H]2O)[C@H](O)[C@H]1O[C@H]1O[C@H](CO)[C@@H](O)[C@H](N)[C@H]1O", "note": "[amikacin]", "values": [{"measurement": "bactericidal activity against Mab in vitro", "setting": "Mab", "value": "poor bactericidal activity"}]}, {"smiles": "CC[C@H]1OC(=O)[C@H](C)[C@@H](O[C@H]2C[C@@](C)(OC)[C@@H](O)[C@H](C)O2)[C@H](C)[C@@H](O[C@@H]2O[C@H](C)C[C@H](N(C)C)[C@H]2O)[C@](C)(OC)C[C@@H](C)C(=O)[C@H](C)[C@@H](O)[C@]1(C)O", "note": "[clarithromycin]", "values": [{"measurement": "bactericidal activity against Mab in vitro", "setting": "Mab", "value": "poor bactericidal activity"}]}, {"smiles": "ClC1CN=Cc2ccc3[n]2[Au+][n]2c(ccc2-c2nc4ccccc4nc2-3)C=NC1.F[P-](F)(F)(F)(F)F", "note": "(centres unmarked) [Compound 11]", "values": [{"measurement": "MIC Mab", "setting": "Mab 390S-lux", "value": 91.72, "unit": "µM"}, {"measurement": "decrease in CFU/mL, early time-point", "setting": "Mtb CDC1551; 24 h", "value": "> 1", "unit": "log"}, {"measurement": "mode of action, latest time-point", "setting": "Mtb CDC1551; 144 h, at 8, 4 and 2-fold MIC", "value": "bacteriostatic"}, {"measurement": "IC50", "setting": "[1]", "value": 108, "unit": "µM"}, {"measurement": "MIC Mtb", "setting": "Mtb-lux", "value": 4.06, "unit": "µM"}]}, {"smiles": "CCOC1CN=Cc2ccc[n]2[Au+][n]2cccc2C=NC1.F[P-](F)(F)(F)(F)F", "note": "(centres unmarked) [Compound 15]", "values": [{"measurement": "MIC Mab", "setting": "Mab 390S-lux", "value": 13.05, "unit": "µM"}, {"measurement": "mode of action against Mtb", "setting": "Mtb CDC1551", "value": "rapid and potent bactericidal activity"}, {"measurement": "IC50", "setting": "[1]", "value": 48.9, "unit": "µM"}, {"measurement": "MIC Mtb", "setting": "Mtb-lux", "value": 4.61, "unit": "µM"}]}, {"smiles": "C1=NCCCN=Cc2ccc3[n]2[Au+][n]2c1ccc2-c1nc2ccccc2nc1-3.F[P-](F)(F)(F)(F)F", "note": "[Compound 8]", "values": [{"measurement": "MIC Mab", "setting": "Mab 390S-lux", "value": 849.41, "unit": "µM"}, {"measurement": "IC50", "setting": "[1]", "value": 48.5, "unit": "µM"}, {"measurement": "MIC Mtb", "setting": "Mtb-lux", "value": 2.72, "unit": "µM"}]}, {"smiles": "C1=NCCCCN=Cc2ccc3[n]2[Au+][n]2c1ccc2-c1nc2ccccc2nc1-3.F[P-](F)(F)(F)(F)F", "note": "[Compound 10]", "values": [{"measurement": "activity against topoisomerase II (M. tuberculosis gyrase supercoiling)", "setting": "M. tuberculosis gyrase", "value": "neither had significant activity"}, {"measurement": "MIC Mab", "setting": "Mab 390S-lux", "value": "5.4 µM and 5.44 µM"}, {"measurement": "tolerability", "setting": "tolerability of mice", "value": "tolerated"}, {"measurement": "activity against topoisomerase II (E. coli gyrase supercoiling)", "setting": "E. coli gyrase", "value": "neither had significant activity"}, {"measurement": "mode of action against Mtb", "setting": "Mtb CDC1551", "value": "almost completely bacteriostatic"}, {"measurement": "decrease relative to vehicle control", "setting": "Mtb CDC1551; at 64-fold MIC", "value": 1, "unit": "log"}, {"measurement": "loss of the Au(III) ion", "setting": "[2]", "value": "cannot be lost since it is very tightly bound"}, {"measurement": "IC50", "setting": "[1]", "value": 85.8, "unit": "µM"}, {"measurement": "inhibition of topoisomerase I (EcTopo1 relaxation)", "setting": "EcTopo1", "value": "able to inhibit topoisomerase I"}, {"measurement": "MIC Mtb", "setting": "Mtb-lux", "value": 0.12, "unit": "µM"}, {"measurement": "inhibition of topoisomerase I (MtbTopo1 relaxation)", "setting": "MtbTopo1", "value": "able to inhibit topoisomerase I"}]}]}
